Results taken from PMC9027532, “Preclinical Pharmacokinetic Studies of a Novel Diuretic Inhibiting Urea Transporters” (Molecules, 2022).
Like-named read-outs stand apart in the source and are kept apart here.

Columns and labels:
[1] = Tissue distribution study in rats; assay type: in vivo, SD rats; settings: male, Sprague-Dawley, rat, single oral dose 100 mg/kg; for Kp: read-out: Kp (tissue plasma distribution coefficient)
Source text: Compound 25a was extensively distributed in most tissues of rats, and the drug concentration was high in organs with abundant hemoperfusions, such as the kidney, heart, lung, and spleen, among which the drug concentration was the highest in the kidney, with a tissue plasma distribution coefficient Kp = 1.67. The high kidney distribution is a good characteristic for diuretics targeting UTs, because the UTs in the renal inner medullary collecting duct (UT-A1/3) and renal vasa recta microvessels (UT-B) play vital roles in urea recycling and urine concentration. […] Thus, the potential risk of 25a for the central nervous system and male reproductive system is probably low.
Twenty-four SD rats were randomly divided into six groups and received a single oral dose of 25a at 100 mg/kg. Blood and tissues samples (i.e., brain, heart, lungs, liver, spleen, kidneys, muscle, skin, fat, testes, and leg bones) were collected at 0.25 h, 0.5 h, 2 h, 6 h, 12 h, and 24 h after dosing. The tissue samples were rinsed with cold saline and dried on filter papers, weighed, and homogenized with fivefold volumes of ultrapure water using a homogenizer (T10, IKA, Staufen, Germany) on ice. The right shin bone of the rat was crushed and soaked in methanol for 12 h at 4 °C. Tissue homogenate or bone soak solution was prepared and analyzed using the above method. Samples were stored at −80 °C until analysis.

[2] = Blood plasma ratio, rat blood; assay type: in vitro ADME, SD rats; settings: for Blood Plasma Ratio: rat
Description: The BPR of 25a in rats and humans was assessed. […] In addition, a significant species difference between rats and humans was observed (p < 0.05, Student’s t-test, n = 3).
The blood plasma ratio of 25a was investigated as previously reported. Briefly, fresh whole blood was collected into collection tubes containing K2–EDTA as an anticoagulant from SD rats and healthy volunteers. Blood spiked with 50, 500, and 2500 ng/mL 25a was incubated in the incubator with 5% CO2 at 37 ± 1 °C for 1 h. Some of the incubated samples were processed as blood samples; the remaining incubated samples were centrifuged to generate plasma samples. The concentration of 25a in samples was determined using the validated LC–MS/MS method.

[3] = plasma (tissue distribution study)

Work on `CC(=O)Nc1ccc(NC(=O)c2ccc(C(C)=O)o2)cc1` [Compound 25a, N-(4-acetamidophenyl)-5-acetylfuran-2-carboxamide] yielded an AUC(0-t) ([1]; bone) of 2680 ± 660 ng·h/mL, a Cmax ([1]; bone) of 413 ± 150 ng/mL and a Tmax ([1]; bone) of 1.1 ± 0.9 h. It also gave a half-life ([1]; bone) of 3.7 ± 0.5 h, a Kp ([1]; bone) of 0.4 and an AUC(0-t) ([1]; brain) of 1390 ± 602 ng·h/mL. It also gave a Cmax ([1]; brain) of 820 ± 769 ng/mL, a Tmax ([1]; brain) of 0.9 ± 0.6 h and a half-life ([1]; brain) of 6.1 ± 2.8 h. It also gave a Kp ([1]; brain) of 0.27, an AUC(0-t) ([1]; fat) of 1570 ± 650 ng·h/mL and a Cmax ([1]; fat) of 333 ± 238 ng/mL. The Tmax ([1]; fat) was 1.3 ± 0.8 h, the half-life ([1]; fat) was 6.6 ± 4.2 h and the Kp ([1]; fat) was 0.31. It also gave an AUC(0-t) ([1]; heart) of 4160 ± 1010 ng·h/mL, a Cmax ([1]; heart) of 631 ± 64.8 ng/mL and a Tmax ([1]; heart) of 0.8 ± 0.7 h. For the same molecule, the half-life ([1]; heart) was 3.5 ± 0.6 h, the Kp ([1]; heart) was 0.8 and the AUC(0-t) ([1]; kidney) was 8670 ± 1510 ng·h/mL. It also gave a Cmax ([1]; kidney) of 1480 ± 473 ng/mL, a Tmax ([1]; kidney) of 0.4 ± 0.1 h and a half-life ([1]; kidney) of 4.2 ± 0.8 h. The Kp ([1]; kidney) was 1.67, the AUC(0-t) ([1]; liver) was 1650 ± 1000 ng·h/mL and the Cmax ([1]; liver) was 183 ± 144 ng/mL. It also gave a Tmax ([1]; liver) of 3.6 ± 2.5 h, a half-life ([1]; liver) of 6.3 ± 3.4 h and a Kp ([1]; liver) of 0.22. For the same molecule, the AUC(0-t) ([1]; lung) was 3720 ± 880 ng·h/mL, the Cmax ([1]; lung) was 1130 ± 1010 ng/mL and the Tmax ([1]; lung) was 0.4 ± 0.1 h. The half-life ([1]; lung) was 3.6 ± 0.7 h, the Kp ([1]; lung) was 0.72 and the AUC(0-t) ([1]; muscle) was 4000 ± 790 ng·h/mL. It also gave a Cmax ([1]; muscle) of 728 ± 216 ng/mL, a Tmax ([1]; muscle) of 0.8 ± 0.7 h and a half-life ([1]; muscle) of 3.2 ± 0.4 h. It also gave a Kp ([1]; muscle) of 0.79, an AUC(0-t) [1, 3] of 5200 ± 1590 ng·h/mL and a Cmax [1, 3] of 1120 ± 132 ng/mL. The Tmax [1, 3] was 0.3 h, the half-life [1, 3] was 5.7 ± 4.8 h and the Kp [1, 3] was 1. The AUC(0-t) ([1]; skin) was 4830 ± 1080 ng·h/mL, the Cmax ([1]; skin) was 701 ± 124 ng/mL and the Tmax ([1]; skin) was 2.6 ± 2.1 h. The half-life ([1]; skin) was 3.6 ± 0.5 h, the Kp ([1]; skin) was 0.93 and the AUC(0-t) ([1]; spleen) was 4270 ± 2630 ng·h/mL. It also gave a Cmax ([1]; spleen) of 934 ± 793 ng/mL, a Tmax ([1]; spleen) of 0.9 ± 0.6 h and a half-life ([1]; spleen) of 4.5 ± 0.8 h. It also gave a Kp ([1]; spleen) of 0.82, an AUC(0-t) ([1]; testis) of 338 ± 144 ng·h/mL and a Cmax ([1]; testis) of 50.6 ± 26.4 ng/mL. For the same molecule, the Tmax ([1]; testis) was 6 h, the Kp ([1]; testis) was 0.06 and the “Blood Plasma Ratio” value ([2]; 50 ng/mL) was 0.84 ± 0.26. For the same molecule, the “Blood Plasma Ratio” value ([2]; 500 ng/mL) was 0.74 ± 0.06, the “Blood Plasma Ratio” value ([2]; 2500 ng/mL) was 0.79 ± 0.15 and the “mean blood plasma ratio (BPR)” value ([2]; rats, 50, 500, 2500 ng/mL) was 0.74–0.84.
